Experimental data from US8568801B2, “Solid oral sensorial products including stain inhibitor” (Philip Morris USA Inc., priority 2010, dated 2013).

Legend:
[1] = Cow's teeth staining by extract of tea pouches, simulating 6 months of use; settings: extract of pouches with 5.0 g tea and 50 mg sodium hexametaphosphate; 5 soaks of 7 minutes at about 100° F. with brushing; FIG. 9
Method: (§1) To determine the effectiveness of the phosphate containing stain inhibitor on oral sensorial products including tea, a test was performed to simulate 6 months of use of the oral sensorial products. About 187.5 mL artificial saliva and 75 pouches containing 5.0 g tea were placed in a bag in a water bath at 100° F. for 3 minutes. The artificial saliva was formed as part of a 1000 mL batch including 4.20 g sodium bicarbonate, 0.50 g sodium chloride and 0.20 g potassium carbonate. The bag was removed and rolled for about 2 minutes and then returned to the water bath for 10 minutes. This process was repeated four more times (five total). The pouches were then removed from the bag and 50 mL of the extract was placed in a 250 mL crystallization beaker. Cow's teeth were then immersed in the 50 mL of extract, the beaker was covered with polypropylene wrap, and the teeth were soaked for 7 minutes at about 100° F. The teeth were removed from the beaker and rinsed with reverse osmosis water for about 5 seconds. The front enamel of each tooth was brushed with 1 g of Crest® Cavity Protection toothpaste for 30 seconds, rinsed with reverse osmosis water and covered to prevent exposure to light. This regime was repeated 4 additional times (5 total). A second extract was made using pouches including 5.0 g tea and 50 mg sodium hexametaphosphate. […]

[2] = Cow's teeth staining by extract of Burley tobacco pouches; settings: as printed, the tobacco-only tooth is the darker one; inhibitor extract from 50 mg sodium hexametaphosphate and 5.0 g Burley tobacco; 5 soaks; FIG. 10
Method: as §1, with “inhibitor on solid oral sensorial” for “inhibitor on oral sensorial”, “products including tobacco, 187.5 mL” for “products including tea, a test was performed to simulate 6 months of use of the oral sensorial products. About 187.5 mL”, “5.0 g Burley tobacco were placed” for “5.0 g tea were placed”, “of the Burley tobacco extract was” for “of the extract was”, “5.0 g Burley tobacco and 50” for “5.0 g tea and 50”

[3] = Hydroxyapatite powder washed in phosphate, then soaked in Burley tobacco extract; settings: compared with unwashed HAP powder and with HAP powder first washed in dibasic sodium phosphate; FIG. 11
[4] = Hydroxyapatite powder soaked in tea extract; settings: 5.0 g tea and 50 mg sodium hexametaphosphate in 100 mL water, room temperature, about 1 hour; FIG. 12
Method: A second extract was formed by soaking 5.0 g of tea in 100 mL water at room temperature for about 1 hour. Each extract was then filtered through #2 Watman filter paper. Approximately 152 mg of hydroxyapatite powder was placed in the bottom of each of two centrifuge vials. 14 mL of the first extract was placed in one vial and 14 mL of the second extract was placed in the second vial.

[5] = Hydroxyapatite powder soaked in Burley tobacco extract with various amounts of sodium hexametaphosphate; settings: FIG. 13
Method: To determine the effect of various amount of sodium hexametaphosphate, 5.0 grams of Burley tobacco was soaked in 100 mL water at room temperature for 1 hour to form a first extract. A second extract was formed by soaking 5.0 grams of Burley tobacco and […] sodium hexametaphosphate in 100 mL water at room temperature for 1 hour. A third extract was formed by soaking 5.0 grams of Burley tobacco and 0.252 g sodium hexametaphosphate in 100 mL water at room temperature for 1 hour. A fourth extract was formed by soaking 5.0 grams of Burley tobacco and 0.047 g sodium hexametaphosphate in 100 mL water at room temperature for 1 hour. Each extract was then filtered through #2 Watman filter paper. Approximately […] of hydroxyapatite powder was placed in the bottom of each of four centrifuge vials. 14 mL of the first extract was placed in the first vial, 14 mL of the second extract was placed in the second vial, 14 mL of the third extract was placed in the third vial and 14 mL of the fourth extract was placed in the fourth vial. The powder in each vial was allowed to soak for about 1 hour with agitation and then the powder was decanted, washed in distilled water at least three times and decanted each time.

O=P1([O-])OP(=O)([O-])OP(=O)([O-])OP(=O)([O-])OP(=O)([O-])OP(=O)([O-])O1.[Na+].[Na+].[Na+].[Na+].[Na+].[Na+] [sodium hexametaphosphate]
color of cow's teeth exposed to sodium hexametaphosphate and tea compared with teeth exposed to tea alone [1]: noticeably lighter in color | color of cow's tooth soaked in Burley tobacco extract alone compared with tooth soaked in extract with sodium hexametaphosphate [2]: visibly darker | color of HAP powder first washed in the phosphate and then soaked in Burley tobacco extract [3]: visibly whiter | color of HAP powder soaked in extract of tea and sodium hexametaphosphate compared with tea alone [4]: visibly whiter | color of powders soaked in extracts with larger amounts of sodium hexametaphosphate compared with smaller amounts ([5]; 25.080 g, 0.252 g and 0.047 g sodium hexametaphosphate with 5.0 g Burley tobacco in 100 mL water): lighter in color | color of powder soaked in Burley tobacco extract alone compared with powders soaked in extracts including sodium hexametaphosphate ([5]; as printed, the tobacco-only powder is the darker one, 5.0 g Burley tobacco with 25.080 g, 0.252 g or 0.047 g sodium hexametaphosphate in 100 mL water): visibly darker
